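A five-concentration, 48-hour dose response in 96-well plates underlies each endpoint, interpolated linearly between surrounding concentrations. Abbreviation: GI50, concentration required for 50% inhibition of growth. Definition used: TGI = concentration required for complete inhibition of growth.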
Tests used:
Experiment in all cases: NCI tumour cell line growth inhibition, 48 h
[1] = system: A498 renal
[2] = system: A549 NSCLC
[3] = system: ACHN renal
[4] = system: BT-549 breast
[5] = system: CAKI-1 renal
[6] = system: COLO 205 colon
[7] = system: DU-145 prostate
[8] = system: HCC-2998 colon
[9] = system: HCT-15 colon
[10] = system: HL-60(TB) leukemia
[11] = system: HOP-62 NSCLC
[12] = system: HOP-92 NSCLC
[13] = system: HS 578T breast
[14] = system: HT29 colon
[15] = system: IGROV1 ovarian
[16] = system: K-562 leukemia
[17] = system: KM12 colon
[18] = system: LOX IMVI melanoma
[19] = system: M14 melanoma
[20] = system: MALME-3M melanoma
[21] = system: MCF7 breast
[22] = system: MDA-MB-231 breast
[23] = system: MDA-MB-435
[24] = system: MOLT-4 leukemia
[25] = system: NCI-H226 lung
[26] = system: NCI-H460 lung
[27] = system: NCI-H522 lung
[28] = system: NCI/ADR-RES ovarian
[29] = system: OVCAR-3 ovarian
[30] = system: OVCAR-4 ovarian
[31] = system: OVCAR-5 ovarian
[32] = system: PC-3 prostate
[33] = system: RPMI-8226 leukemia
[34] = system: RXF 393 renal
[35] = system: SF-295 CNS
[36] = system: SF-539 CNS
[37] = system: SK-MEL-2 melanoma
[38] = system: SK-MEL-28 melanoma
[39] = system: SK-MEL-5 melanoma
[40] = system: SK-OV-3 ovarian
[41] = system: SN12C renal
[42] = system: SNB-75 CNS
[43] = system: SR leukemia
[44] = system: SW-620 colon
[45] = system: T-47D breast
[46] = system: TK-10 renal
[47] = system: U251 CNS
[48] = system: UACC-257 melanoma
[49] = system: UACC-62 melanoma
[50] = system: UO-31 renal
[51] = system: 786-0 renal
[52] = system: CCRF-CEM leukemia
[53] = system: EKVX NSCLC
[54] = system: HCT-116 colon
[55] = system: NCI-H23 lung
[56] = system: OVCAR-8 ovarian
[57] = system: SF-268 CNS
[58] = system: SNB-19 CNS

COc1cc(/C=N/Nc2ccnc3cc(Cl)ccc23)cc(OC)c1O
GI50 [1]: 18.9 µM
TGI [1]: 38.5 µM
GI50 [2]: 1.74 µM
TGI [2]: 3.21 µM
GI50 [3]: 1.83 µM
TGI [3]: 3.23 µM
GI50 [4]: 1750 nM
TGI [4]: 3.27 µM
GI50 [5]: 1660 nM
TGI [5]: 3.02 µM
GI50 [6]: 1.86 µM
TGI [6]: 3.42 µM
GI50 [7]: 1.9 µM
TGI [7]: 3.61 µM
GI50 [8]: 1.73 µM
TGI [8]: 3.23 µM
GI50 [9]: 1780 nM
TGI [9]: 3.43 µM
GI50 [10]: 1890 nM
TGI [10]: 3.86 µM
GI50 [11]: 1.69 µM
TGI [11]: 3.13 µM
GI50 [12]: 1440 nM
TGI [12]: 2890 nM
GI50 [13]: 2030 nM
TGI [13]: 4.44 µM
GI50 [14]: 1.81 µM
TGI [14]: 3.34 µM
GI50 [15]: 1850 nM
TGI [15]: 3.63 µM
GI50 [16]: 1630 nM
TGI [16]: 3.46 µM
GI50 [17]: 2390 nM
TGI [17]: 6.05 µM
GI50 [18]: 2150 nM
TGI [18]: 3.65 µM
GI50 [19]: 1760 nM
TGI [19]: 3.22 µM
GI50 [20]: 1.87 µM
TGI [20]: 3.44 µM
GI50 [21]: 1580 nM
TGI [21]: 3.37 µM
GI50 [22]: 2.05 µM
TGI [22]: 4.05 µM
GI50 [23]: 1690 nM
TGI [23]: 3070 nM
GI50 [24]: 2360 nM
TGI [24]: 5.71 µM
GI50 [25]: 1.79 µM
TGI [25]: 3.67 µM
GI50 [26]: 2050 nM
TGI [26]: 3.73 µM
GI50 [27]: 1660 nM
TGI [27]: 3200 nM
GI50 [28]: 2130 nM
TGI [28]: 4.51 µM
GI50 [29]: 2.41 µM
TGI [29]: 5.47 µM
GI50 [30]: 1.85 µM
TGI [30]: 3.63 µM
GI50 [31]: 1.67 µM
TGI [31]: 3.08 µM
GI50 [32]: 1.66 µM
TGI [32]: 3.18 µM
GI50 [33]: 2.18 µM
TGI [33]: 4.78 µM
GI50 [34]: 1750 nM
TGI [34]: 3.31 µM
GI50 [35]: 1790 nM
TGI [35]: 3.32 µM
GI50 [36]: 1.75 µM
TGI [36]: 3.16 µM
GI50 [37]: 16.3 µM
TGI [37]: 32.8 µM
GI50 [38]: 1790 nM
TGI [38]: 3.21 µM
GI50 [39]: 1770 nM
TGI [39]: 3.17 µM
GI50 [40]: 1.72 µM
TGI [40]: 3.14 µM
GI50 [41]: 1800 nM
TGI [41]: 3.56 µM
GI50 [42]: 1.67 µM
TGI [42]: 3.08 µM
GI50 [43]: 1900 nM
TGI [43]: 4.72 µM
GI50 [44]: 1690 nM
TGI [44]: 3.66 µM
GI50 [45]: 1800 nM
TGI [45]: 3.9 µM
GI50 [46]: 1810 nM
TGI [46]: 3.25 µM
GI50 [47]: 1810 nM
TGI [47]: 3.26 µM
GI50 [48]: 1770 nM
TGI [48]: 3.3 µM
GI50 [49]: 1710 nM
TGI [49]: 3.25 µM
GI50 [50]: 1690 nM
TGI [50]: 3.12 µM

CS(=O)(=O)c1ccc2c(c1)c1c(n2C(=O)c2ccc(Cl)cc2)CCCC1
GI50 [51]: 3.4 µM
TGI [51]: > 100 µM
GI50 [1]: > 100 µM
TGI [1]: > 100 µM
GI50 [2]: 13.5 µM
TGI [2]: > 100 µM
GI50 [3]: 5.1 µM
TGI [3]: > 100 µM
GI50 [4]: 1640 nM
TGI [4]: > 100 µM
GI50 [5]: 2190 nM
TGI [5]: > 100 µM
GI50 [52]: 2050 nM
TGI [52]: > 100 µM
GI50 [6]: 18.9 µM
TGI [6]: > 100 µM
GI50 [7]: 7.52 µM
TGI [7]: > 100 µM
GI50 [53]: 14 µM
TGI [53]: > 100 µM
GI50 [8]: 16.8 µM
TGI [8]: > 100 µM
GI50 [54]: 1270 nM
TGI [54]: > 100 µM
GI50 [9]: 1320 nM
TGI [9]: > 100 µM
GI50 [10]: 1130 nM
GI50 [11]: 4.48 µM
TGI [11]: > 100 µM
GI50 [12]: 2630 nM
TGI [12]: > 100000 nM
GI50 [13]: 1410 nM
TGI [13]: > 100 µM
GI50 [14]: 4.34 µM
TGI [14]: 67.4 µM
GI50 [15]: 3340 nM
TGI [15]: > 100 µM
GI50 [16]: 1310 nM
TGI [16]: > 100 µM
GI50 [17]: 1590 nM
TGI [17]: > 100 µM
GI50 [18]: 2430 nM
TGI [18]: > 100 µM
GI50 [19]: 1560 nM
TGI [19]: > 100 µM
GI50 [20]: 7.23 µM
TGI [20]: > 100 µM
GI50 [21]: 1080 nM
TGI [21]: > 100 µM
GI50 [22]: 6.83 µM
TGI [22]: > 100 µM
GI50 [23]: 614 nM
TGI [23]: 1510 nM
GI50 [24]: 2860 nM
TGI [24]: > 100 µM
GI50 [25]: 4.62 µM
TGI [25]: > 100 µM
GI50 [55]: 28.2 µM
TGI [55]: > 100 µM
GI50 [26]: 1500 nM
TGI [26]: > 100 µM
GI50 [27]: 717 nM
TGI [27]: 2570 nM
GI50 [28]: 1400 nM
TGI [28]: > 100 µM
GI50 [29]: 5.01 µM
TGI [29]: 46.3 µM
GI50 [30]: 21.1 µM
TGI [30]: > 100 µM
GI50 [31]: 19.8 µM
TGI [31]: > 100 µM
GI50 [56]: 6.49 µM
TGI [56]: > 100 µM
GI50 [32]: 4.75 µM
TGI [32]: > 100 µM
GI50 [33]: 4.6 µM
TGI [33]: > 100 µM
GI50 [34]: 4230 nM
TGI [34]: 40.7 µM
GI50 [57]: 21.5 µM
TGI [57]: > 100 µM
GI50 [35]: 1960 nM
TGI [35]: > 100 µM
GI50 [36]: 6.31 µM
TGI [36]: 35 µM
GI50 [37]: 1.15 µM
TGI [37]: > 100 µM
GI50 [38]: 2970 nM
TGI [38]: > 100 µM
GI50 [39]: 2450 nM
TGI [39]: > 100 µM
GI50 [40]: 22.1 µM
TGI [40]: > 100 µM
GI50 [41]: 3430 nM
TGI [41]: > 100 µM
GI50 [58]: 4.16 µM
TGI [58]: > 100 µM
GI50 [42]: 5.05 µM
TGI [42]: 64.9 µM
GI50 [43]: 1100 nM
TGI [43]: > 100 µM
GI50 [44]: 1610 nM
TGI [44]: > 100 µM
GI50 [45]: 2540 nM
TGI [45]: > 100 µM
GI50 [46]: > 100000 nM
TGI [46]: > 100 µM
GI50 [47]: 3410 nM
TGI [47]: > 100 µM
GI50 [48]: > 100000 nM
TGI [48]: > 100 µM
GI50 [49]: 1270 nM
TGI [49]: > 100 µM
GI50 [50]: 3220 nM
TGI [50]: > 100 µM
